Experimental findings from US6825350B2, “Sulfonamide and sulfamide substituted imidazoquinolines and methods for the treatment of periodontal disease using these and other immune response modifiers” (3M Innovative Properties Company, priority 1999, dated 2004) are described below.

One assay relates to interferon (α). The assay can be described thus: Cytokine induction in human cells: interferon (α) by ELISA. Type of assay: cell-based. As to conditions: human PBMCs, 18 to 24 hours incubation, ELISA of culture supernatant, read-out: Lowest Effective Concentration (μM) Interferon. A general note: ELISA stands for enzyme-linked immunosorbent assay.
In assay [1] the test system is tumor necrosis factor (α). The assay can be described thus: Cytokine induction in human cells: tumor necrosis factor (α) by ELISA. Type of assay: cell-based. As to conditions: Homo sapiens, PBMC, human PBMCs, 18 to 24 hours incubation, ELISA of culture supernatant; read-out: Lowest Effective Concentration (μM) Tumor Necrosis Factor.

Molecules are shown by their SMILES. Read-outs that look alike come from different tables or passages of the source. Where only a bound is given, the exact number is not on record here.

`CCCCc1nc2c(N)nc3ccccc3c2n1CCCCNS(=O)(=O)c1c(F)c(F)c(F)c(F)c1F` [Example 90]: the minimal effective concentration in the assay on interferon (α) (Homo sapiens, PBMC) was 0.01 µM; in assay [1], 1 µM.

`COCCc1nc2c(N)nc3ccccc3c2n1CCCCNS(=O)(=O)c1c(C)noc1C` [Example 123]: the minimal effective concentration is 0.0001 µM in the assay with interferon (α) (Homo sapiens, PBMC) and 10 µM in assay [1].

With `CCCCc1nc2c(N)nc3ccccc3c2n1CCCCNS(=O)(=O)c1ccccc1C(F)(F)F` [Example 103], the minimal effective concentration with interferon (α) (Homo sapiens, PBMC) amounted to 0.1 µM; in assay [1], 10 µM.

Take `COCCc1nc2c(N)nc3ccccc3c2n1CCCCNS(=O)(=O)c1cccc(F)c1` [Example 122]: the minimal effective concentration with interferon (α) (Homo sapiens, PBMC) was found to be 0.0001 µM; in assay [1], 1 µM.

Turning to `CCCCc1nc2c(N)nc3c(c2n1CCCCNS(=O)(=O)c1cccc2c(N(C)C)cccc12)CCCC3` [Example 206], the minimal effective concentration with interferon (α) (Homo sapiens, PBMC) was 1 µM; in assay [1], above 10 µM.

As for `CCOCc1nc2c(N)nc3ccccc3c2n1CCNS(=O)(=O)N(C)C` [Example 217], the minimal effective concentration in the assay on interferon (α) (Homo sapiens, PBMC) is 1 µM; in assay [1] it was above 10 µM.

Regarding `CCOC(=O)C1CCN(S(=O)(=O)NCCCCn2c(CCOC)nc3c(N)nc4ccccc4c32)CC1` [Example 227], the minimal effective concentration is 0.001 µM in the assay with interferon (α) (Homo sapiens, PBMC) and above 10 µM in assay [1].

In the case of `COc1ccc(S(=O)(=O)NCCCCn2cnc3c(N)nc4c(c32)CCCC4)cc1` [Example 65], the minimal effective concentration with interferon (α) (Homo sapiens, PBMC) is 3.33 µM; in assay [1], above 30 µM.

As to `CCCCc1nc2c(N)nc3ccccc3c2n1CCNS(=O)(=O)c1ccc(Cl)c(Cl)c1` [Example 22], the minimal effective concentration is 0.37 µM in the assay with interferon (α) (Homo sapiens, PBMC) and above 30 µM in assay [1].

For `Nc1nc2c(c3c1ncn3CCCCNS(=O)(=O)c1ccc(Cl)cc1)CCCC2` [Example 59], the minimal effective concentration was 3.33 µM in the assay with interferon (α) (Homo sapiens, PBMC) and above 30 µM in assay [1].

`CCCCc1nc2c(N)nc3ccccc3c2n1CCCCNS(=O)(=O)c1ccc(Cl)c(Cl)c1` [Example 48]: the minimal effective concentration stood at 0.37 µM in the assay with interferon (α) (Homo sapiens, PBMC) and 10 µM in assay [1].

For `CCS(=O)(=O)NCCCCn1c(CCOC)nc2c(N)nc3c(c21)CCCC3` [Example 207], the minimal effective concentration in the assay with interferon (α) (Homo sapiens, PBMC) came to 0.001 µM; in assay [1], 1 µM.

`CCCCc1nc2c(N)nc3ccccc3c2n1CCCCNS(=O)(=O)c1ccc2c(c1)CN(C(=O)C(F)(F)F)CC2` [Example 102]: the minimal effective concentration in the assay on interferon (α) (Homo sapiens, PBMC) is 0.001 µM; in assay [1] it was 10 µM.

As to `Cc1ccc(S(=O)(=O)NCCCCn2cnc3c(N)nc4c(c32)CCCC4)cc1` [Example 64], the minimal effective concentration was 3.33 µM in the assay with interferon (α) (Homo sapiens, PBMC) and above 30 µM in assay [1].

As to `CCCCc1nc2c(N)nc3ccccc3c2n1CCCCNS(=O)(=O)c1ccc(C(F)(F)F)cc1[N+](=O)[O-]` [Example 79], the minimal effective concentration in the assay on interferon (α) (Homo sapiens, PBMC) is 0.01 µM; in assay [1], 1 µM.

Turning to `CCCCc1nc2c(N)nc3ccccc3c2n1CCCCNS(=O)(=O)C[C@]12CC[C@@H](CC1=O)C2(C)C` [Example 89], the minimal effective concentration with interferon (α) (Homo sapiens, PBMC) worked out at 0.001 µM; in assay [1] it was 1 µM.

For `CCCCc1nc2c(N)nc3ccccc3c2n1CCCCNS(=O)(=O)c1ccc(OC(F)(F)F)cc1` [Example 85], the minimal effective concentration with interferon (α) (Homo sapiens, PBMC) was 1 µM; in assay [1], above 10 µM.

As for `Nc1nc2c(c3c1ncn3CCCCNS(=O)(=O)c1cccs1)CCCC2` [Example 57], the minimal effective concentration was 3.33 µM in the assay with interferon (α) (Homo sapiens, PBMC) and above 30 µM in assay [1].

In the case of `CC(C)S(=O)(=O)NCCCCn1cnc2c(N)nc3c(c21)CCCC3` [Example 55], the minimal effective concentration was 3.33 µM with interferon (α) (Homo sapiens, PBMC) and above 30 µM in assay [1].

`CCCCc1nc2c(N)nc3ccccc3c2n1CCCCNS(=O)(=O)c1ccc(C)cc1` [Example 40]: the minimal effective concentration amounted to 0.0015 µM with interferon (α) (Homo sapiens, PBMC) and 3.33 µM in assay [1].

Regarding `CCCCc1nc2c(N)nc3ccccc3c2n1CCNS(=O)(=O)c1ccc(OC)cc1` [Example 27], the minimal effective concentration was found to be 1.11 µM in the assay on interferon (α) (Homo sapiens, PBMC) and 30 µM in assay [1].

Consider `CCOCc1nc2c(N)nc3ccccc3c2n1CCNS(=O)(=O)c1cccs1` [Example 109], for which the minimal effective concentration was determined as 1 µM with interferon (α) (Homo sapiens, PBMC) and 10 µM in assay [1].

Consider `CCCCc1nc2c(N)nc3ccccc3c2n1CCCCNS(=O)(=O)c1cccc2cccnc12` [Example 43], for which the minimal effective concentration with interferon (α) (Homo sapiens, PBMC) was 0.04 µM; in assay [1] it was above 30 µM.

For the compound `COCCc1nc2c(N)nc3ccccc3c2n1CCCCNS(=O)(=O)N(C)C` [Example 218], the minimal effective concentration with interferon (α) (Homo sapiens, PBMC) came out at 0.0001 µM; in assay [1], 1 µM.

For the compound `CCCCc1nc2c(N)nc3ccccc3c2n1CCNS(=O)(=O)c1cccc2ccccc12` [Example 31], the minimal effective concentration is 1.11 µM in the assay with interferon (α) (Homo sapiens, PBMC) and above 30 µM in assay [1].

Turning to `Nc1nc2c(c3c1ncn3CCCCNS(=O)(=O)c1cccc3cccnc13)CCCC2` [Example 69], the minimal effective concentration is 10 µM with interferon (α) (Homo sapiens, PBMC) and above 30 µM in assay [1].

With `CCCCc1nc2c(N)nc3ccccc3c2n1CCCCNS(=O)(=O)c1ccc(-c2ccccc2)cc1` [Example 96], the minimal effective concentration is 1 µM in the assay with interferon (α) (Homo sapiens, PBMC) and above 10 µM in assay [1].

For `COCCc1nc2c(N)nc3ccccc3c2n1CCCCNS(=O)(=O)Cc1ccccc1[N+](=O)[O-]` [Example 138], the minimal effective concentration in the assay on interferon (α) (Homo sapiens, PBMC) stood at 0.0001 µM; in assay [1], 10 µM.

`COCCc1nc2c(N)nc3ccccc3c2n1CCCCNS(C)(=O)=O` [Example 111]: the minimal effective concentration with interferon (α) (Homo sapiens, PBMC) turned out to be 0.001 µM; in assay [1], 10 µM.

For the compound `CCCCc1nc2c(N)nc3ccccc3c2n1CCCCNS(=O)(=O)c1cc(Br)ccc1OC` [Example 52], the minimal effective concentration was found to be 0.12 µM in the assay with interferon (α) and 10 µM in assay [1].

As for `CCCCc1nc2c(N)nc3ccccc3c2n1CCCCNS(=O)(=O)c1ccc(Cl)c([N+](=O)[O-])c1` [Example 86], the minimal effective concentration was 0.01 µM in the assay on interferon (α) (Homo sapiens, PBMC) and 1 µM in assay [1].

For `CCCCc1nc2c(N)nc3ccccc3c2n1CCCCNS(=O)(=O)c1ccc2ccccc2c1` [Example 42], the minimal effective concentration was 0.01 µM with interferon (α) (Homo sapiens, PBMC) and above 30 µM in assay [1].

For `CCCCc1nc2c(N)nc3ccccc3c2n1CCCCNS(=O)(=O)C[C@]12CC[C@H](CC1=O)C2(C)C` [Example 73], the minimal effective concentration stood at 0.001 µM with interferon (α) (Homo sapiens, PBMC) and 0.1 µM in assay [1].

In the case of `Nc1nc2c(c3c1ncn3CCCCNS(=O)(=O)Cc1ccccc1)CCCC2` [Example 67], the minimal effective concentration in the assay with interferon (α) (Homo sapiens, PBMC) was 10 µM; in assay [1], above 30 µM.

Regarding `COCCc1nc2c(N)nc3ccccc3c2n1CCCCNS(=O)(=O)c1ccccc1Cl` [Example 127], the minimal effective concentration is 0.0001 µM in the assay on interferon (α) (Homo sapiens, PBMC) and 10 µM in assay [1].

As to `CCCCc1nc2c(N)nc3ccccc3c2n1CCNS(=O)(=O)Cc1ccccc1` [Example 28], the minimal effective concentration in the assay with interferon (α) (Homo sapiens, PBMC) stood at 1.11 µM; in assay [1], 30 µM.

Turning to `CCCCc1nc2c(N)nc3ccccc3c2n1CCNS(=O)(=O)c1ccc2ccccc2c1` [Example 32], the minimal effective concentration with interferon (α) (Homo sapiens, PBMC) was 1.11 µM; in assay [1], above 30 µM.

For `Nc1nc2c(c3c1ncn3CCCCNS(=O)(=O)c1ccc(Cl)c(Cl)c1)CCCC2` [Example 60], the minimal effective concentration in the assay on interferon (α) (Homo sapiens, PBMC) was above 30 µM; in assay [1], above 30 µM.

As for `CCCCc1nc2c(N)nc3c(c2n1CCCCNS(=O)(=O)c1cccs1)CCCC3` [Example 204], the minimal effective concentration in the assay on interferon (α) (Homo sapiens, PBMC) is 0.0001 µM; in assay [1], 1 µM.

On to `CCCCCCCCS(=O)(=O)NCCCCn1cnc2c(N)nc3c(c21)CCCC3` [Example 56], for which the minimal effective concentration with interferon (α) (Homo sapiens, PBMC) was above 30 µM; in assay [1], above 30 µM.

As for `COCCc1nc2c(N)nc3ccccc3c2n1CCCCNS(=O)(=O)c1ccccc1` [Example 158], the minimal effective concentration in the assay with interferon (α) (Homo sapiens, PBMC) was determined as 0.0001 µM; in assay [1] it was 1 µM.

On to `CCCCc1nc2c(N)nc3ccccc3c2n1CCCCNS(=O)(=O)c1ccc(I)cc1` [Example 46], for which the minimal effective concentration is 0.37 µM in the assay with interferon (α) (Homo sapiens, PBMC) and above 30 µM in assay [1].

Turning to `COCCc1nc2c(N)nc3ccccc3c2n1CCCCNS(=O)(=O)c1cccs1` [Example 112], the minimal effective concentration in the assay with interferon (α) (Homo sapiens, PBMC) was 0.0001 µM; in assay [1] it was above 10 µM.

For `CCCCc1nc2c(N)nc3ccccc3c2n1CCCCNS(=O)(=O)c1c(C)c(C)c(C)c(C)c1C` [Example 107], the minimal effective concentration in the assay with interferon (α) (Homo sapiens, PBMC) is 1 µM; in assay [1] it was above 10 µM.

Regarding `CCCCc1nc2c(N)nc3ccccc3c2n1CCCCNS(=O)(=O)C(C)C` [Example 38], the minimal effective concentration in the assay with interferon (α) (Homo sapiens, PBMC) was determined as 0.0015 µM; in assay [1], 0.37 µM.

On to `COCCc1nc2c(N)nc3c(c2n1CCCCNS(=O)(=O)c1cccc2c(N(C)C)cccc12)CCCC3` [Example 213], for which the minimal effective concentration in the assay on interferon (α) (Homo sapiens, PBMC) came out at 0.0001 µM; in assay [1], 1 µM.

For `CCCCc1nc2c(N)nc3ccccc3c2n1CCCCNS(=O)(=O)c1cc(Cl)ccc1OC` [Example 100], the minimal effective concentration in the assay with interferon (α) (Homo sapiens, PBMC) was 0.01 µM; in assay [1], 10 µM.

Turning to `CCCCc1nc2c(N)nc3ccccc3c2n1CCCCNS(=O)(=O)c1c(C)noc1C` [Example 94], the minimal effective concentration worked out at 0.001 µM in the assay with interferon (α) (Homo sapiens, PBMC) and 1 µM in assay [1].

With `CCCCS(=O)(=O)NCCCCn1c(CCOC)nc2c(N)nc3c(c21)CCCC3` [Example 209], the minimal effective concentration amounted to 0.0001 µM with interferon (α) (Homo sapiens, PBMC) and 0.1 µM in assay [1].

With `Nc1nc2c(c3c1ncn3CCCCNS(=O)(=O)/C=C/c1ccccc1)CCCC2` [Example 68], the minimal effective concentration with interferon (α) (Homo sapiens, PBMC) was 10 µM; in assay [1], above 30 µM.
